Experimental data reported in the Bradley open melting point set (2014).
Values joined by “and” are separate entries in the source; they are usually repeats but may differ in a detail not shown here. Equal entries are not always repeated.

| SMILES | melting point |
| --- | --- |
| N#Cc1cc(Cl)cc(Cl)c1 [3,5-dichlorobenzonitrile] | 66 °C |
| CC[C@H]1OC(=O)[C@H](C)[C@@H](O[C@H]2C[C@@](C)(OC)[C@@H](O)[C@H](C)O2)[C@H](C)[C@@H](O[C@@H]2O[C@H](C)C[C@H](N(C)C)[C@H]2O)[C@](C)(O)C[C@@H](C)C(=O)[C@H](C)[C@@H](O)[C@]1(C)O [erythromycin] | 191 °C |
| C1=CCCCC1 [Cyclohexene] | -104 °C |
| N#Cc1ccc(I)cc1 [4-iodobenzonitrile] | 126 °C |
| O=C1NC(=O)C(c2ccccc2)(c2ccccc2)N1 [Phenytoin] | 286 °C |
| N#Cc1c(O)cccc1F [2-fluoro-6-hydroxybenzonitrile] | 156 °C |
| CCCCCCCCCCCCCCO [1-tetradecanol] | 40 °C |
| Oc1ccc(I)cc1 [p-iodophenol] | 94 °C |
| CC(C)(C)[SiH](Cl)C(C)(C)C [Di-tert-butyl(chloro)silane] | 39 °C |
| N#CCc1ccc(CC#N)cc1 [1,4-phenylenediacetonitrile] | 96 °C |
| N#CCc1cccc(CC#N)c1 [1,3-phenylenediacetonitrile] | 34 °C |
| CC12CCC(=O)CC1CCC1C2CCC2(C)C1CCC2(O)CCc1ccccc1 (centres undefined) [17-hydroxy-21-phenylpregnan-3-one] | 177 °C |
| CC1(C)CCC2=C1CCC1C2CCC2CC(=O)CCC21C (centres undefined) [10,17,17-trimethylgon-13-en-3-one] | 135 °C |
| CCNc1nc(Cl)nc(NC(C)C)n1 [atrazine] | 175 °C and 177 °C |
| CCCCCC1CCCCC1 [N-pentylcyclohexane] | -58 °C |
| Oc1c(Cl)cccc1Cl [2,6-dichlorophenol] | 67 °C and 68.5 °C and 65 °C (2×) |
| CC#CC [2-butyne] | -32 °C |
| C1CCSC1 [tetrahydrothiophene] | -96 °C |
| COc1cc2c(c(OC)c1OC)-c1ccc(OC)c(=O)cc1[C@@H](NC(C)=O)CC2 [Colchicine] | 156 °C |
| ON=C(/C(=N\O)c1ccco1)c1ccco1 [2,2'-furil dioxime] | 165 °C |
| O=[N+]([O-])O[C@H]1CO[C@H]2[C@@H]1OC[C@H]2O[N+](=O)[O-] [isosorbide dinitrate] | 70 °C |
| CCOC(=O)c1ccccc1N [ethyl anthranilate] | 15 °C |
| BrC(Br)C(Br)Br [1,1,2,2-tetrabromoethane] | 0 °C |

| SMILES | melting point |
| --- | --- |
| CC(Oc1cc(Cl)c(Cl)cc1Cl)C(=O)O (centres undefined) [2-(2,4,5-Trichlorophenoxy)propanoic acid] | 176 °C |
| CC(CP(=O)(O)O)P(=O)(O)O (centres undefined) [propylenediphosphonic acid] | 178 °C |
| O=C1CCC(c2ccccc2)(C2CCN(Cc3ccccc3)CC2)C(=O)N1 (centres undefined) [benzetimide] | 156 °C |
| Oc1ccccc1C=Nc1ccccc1 [salicylideneaniline] | 50 °C |
| Nc1ccccc1[N+](=O)[O-] [o-nitroaniline] | 73 °C |
| OC[C@@H](O)[C@@H](O)[C@H](O)[C@@H](O)CO [D-sorbitol] | 99 °C |
| O=C1OC(=O)C23Cc4ccccc4CC12Cc1cc2c(cc1C3)CC2 (centres undefined) | 250 °C |
| O=C(O)C=CC(=O)O [maleic acid] | 134 °C |
| COC(=O)CCC(C)C1CCC2C3C(OC(C)=O)C(Br)C4CCCCC4(C)C3CCC12C (centres undefined) [methyl 7-(acetyloxy)-6-bromocholan-24-oate] | 159 °C |
| O=C(Cl)c1cccc(C(=O)Cl)c1 [isophthaloyl dichloride] | 44 °C |
| Cl/C(Cl)=C/C3C(C(=O)OCc2cccc(Oc1ccccc1)c2)C3(C)C (centres undefined) | 34 °C |
| O=C(O)CCCCCCCC(=O)O [Azelaic Acid] | 106 °C |
| O=C(CBr)c1cccs1 [2-(bromoacetyl)thiophene] | 31 °C |
| O=C1OC(c2ccccc2)=NC1=Cc1ccccc1F [4-(2-Fluoro-benzylidene)-2-phenyl-4H-oxazol-5-one] | 149 °C |
| O=C(O)c1cccc(Cl)c1 [3-chlorobenzoic acid] | 157 °C |
| ClC(Cl)c1ccc(C(Cl)Cl)cc1 [1,4-bis(dichloromethyl)benzene] | 93 °C |
| Oc1cccc(Cl)c1Cl [2,3-dichlorophenol] | 59 °C |
| O=C1c2ccccc2Cc2ccccc21 [anthrone] | 157 °C |
| BrC(Br)C(Br)Br [1,1,2,2-Tetrabromoethane] | 0 °C |
| c1ccc(C(CCN2CCCCC2)c2ccccc2)cc1 [fenpiprane] | 41 °C |
| Oc1cc(Cl)ccc1Oc1ccc(Cl)cc1Cl [5-Chloro-2-(2,4-dichlorophenoxy)phenol] | 57 °C |
| O=C(CCl)c1ccc(O)c(O)c1 [2-chloro-3',4'-dihydroxyacetophenone] | 174 °C |

More lines, now with the values ahead:

| melting point | SMILES |
| --- | --- |
| 92 °C | CNCCCC12CCC(c3ccccc31)c1ccccc12 [maprotiline] |
| 189 °C | Nc1ccc(C(=O)O)cc1 [4-Aminobenzoic acid] |
| 294 °C | O=C(O)c1ccc(-c2ccc(O)cc2)cc1 [4'-hydroxybiphenyl-4-carboxylic acid] |
| 194 °C | CC(C)(C)c1ccc(B(O)O)cc1 [4-tert-butylbenzeneboronic acid] |
| -56 °C | CCCCC(C)=O [2-hexanone] |
| 87 °C | CCOC(=O)c1cc(C)[nH]n1 [Ethyl 5-methyl-1H-pyrazole-3-carboxylate] |
| 176 °C | Cc1ccc(O)c(-c2ccno2)c1 [2-(5-isoxazolyl)-4-methylphenol] |
| 32 °C | Clc1nc2ccccc2s1 [2-chlorobenzothiazole] |
| -15 °C | OCc1ccccc1 [Phenylmethanol] |
| 144 °C | Cn1c(=O)c2c(ncn2CC2OCCO2)n(C)c1=O [doxofylline] |
| 146 °C | OB(O)c1cccc2ncccc12 [quinoline-5-boronic acid] |
| 105 °C | COc1ccc(C(C)(C)C)cc1B(O)O [5-tert-butyl-2-methoxybenzeneboronic acid] |
| 164 °C | CCCC(=O)c1cc2cc(Br)ccc2oc1=O [6-bromo-3-butyrylcoumarin] |
| 97 °C | CC(=O)c1cccc(N)c1 [m-aminoacetophenone] |
| 149 °C | O=C(O)COC(=O)Cc1ccccc1Nc1c(Cl)cccc1Cl [aceclofenac] |
| 208 °C | O=C(NC1CCN(CCc2c[nH]c3ccccc23)CC1)c1ccccc1 [indoramin] |
| 125 °C | Nc1cccc(O)c1 [3-Aminophenol] |
| 101 °C | CCOc1ccc(NC(=O)CN)cc1 [Phenokoll] |
| 106 °C | CCCCCCCCCCCCCC(N)=O [N-tetradecanamide] |
| 186 °C | C[C@H](Cc1ccc(O)c(O)c1)[C@@H](C)Cc1ccc(O)c(O)c1 [nordihydroguaiaretic acid] |
| 92 °C | CC(C)(C)OC(=O)N1CCS[C@@H]1C(=O)O [(R)-3-boc-thiazolidine-2-carboxylic acid] |
| 236 °C | Cc1ccnc(NS(=O)(=O)c2ccc(N)cc2)n1 [sulfamerazine] |
| 190 °C and 192 °C (2×) | NC(=O)N1c2ccccc2C=Cc2ccccc21 [carbazepine] |
| 63 °C | CCOC(=O)C(NC(=O)c1ccccc1)C(=O)OCC [diethyl benzamidomalonate] |
| 134 °C | Cc1cc(=O)cc(C)o1 [2,6-dimethyl-4-pyrone] |
| 80 °C | CC(=O)c1ccc([N+](=O)[O-])cc1 [p-nitroacetophenone] |
| 69 °C | CCn1c2ccccc2c2ccccc21 [9-ethylcarbazole] |

| melting point | SMILES |
| --- | --- |
| 121 °C | NC(=O)c1sccc1N [3-aminothiophene-2-carboxamide] |
| 129 °C | CC(C)C(N)=O [isobutyramide] |
| -39 °C | CCCCC(=O)CC [Heptan-3-one] |
| 162 °C | O=C(O)c1cccc2ccccc12 [1-Naphthoic acid] |
| 116 °C | CS(=O)(=O)OCCCCOS(C)(=O)=O [busulfan] |
| 221 °C | O=C(O)c1ccc(C(F)(F)F)cc1 [4-(trifluoromethyl)benzoic acid] |
| 138 °C | COc1ccc(Cl)cc1B(O)O [5-chloro-2-methoxybenzeneboronic acid] |
| 75 °C | O=[N+]([O-])c1cc(F)ccc1O [4-fluoro-2-nitrophenol] |
| 11.5 °C (2×) and 12 °C (2×) and 13.8 °C | CC(=O)C(=O)O [pyruvic acid] |
| 211 °C | O=C(O)c1cc(Cl)ccc1/N=N/C1SC(=S)NC1=O (centres undefined) |
| 146 °C | CC(=O)N1CCN(c2ccc(OC[C@@H]3CO[C@@](Cn4ccnc4)(c4ccc(Cl)cc4Cl)O3)cc2)CC1 [Ketoconazole] |
| 57 °C | Cc1ccc(C(=O)c2cc(Cl)cc(Cl)c2)c(C)c1 [3,5-dichloro-2',4'-dimethylbenzophenone] |
| 60 °C | CC(=O)c1ccc(C)c([N+](=O)[O-])c1 [4'-methyl-3'-nitroacetophenone] |
| 192 °C | Nc1cccnc1[N+](=O)[O-] [3-amino-2-nitropyridine] |
| -10 °C | C=C1N(C)c2ccccc2C1(C)C [1,3,3-trimethyl-2-methyleneindoline] |
| 29 °C | Oc1c(F)c(F)cc(F)c1F [2,3,5,6-tetrafluorophenol] |
| 172 °C | Cc1ncc(CO)c(C=O)c1O [Pyridoxal] |
| 58 °C | Cc1ccc(-c2nc(-c3ccccc3)cs2)cc1 [4-phenyl-2-(p-tolyl)thiazole] |
| 57 °C | Clc1cc(Cl)cc(I)c1 [1,3-dichloro-5-iodobenzene] |
| 159 °C | C[Si](C)(C)c1c2c(cc3c1-c1ccccc1OC3)CCCC2=O |
| 142 °C | NC(=O)c1ccccc1O [Salicylamide] |
| 148 °C | CC(C)NCC1CCc2cc(CO)c([N+](=O)[O-])cc2N1 (centres undefined) [oxamniquine] |
| 55 °C | O=C(/C=C1\Cc2ccccc21)c1ccccc1 |
| 111 °C | Cc1ccc(-c2ccc(/C=C/C(=O)c3ccco3)o2)cc1 |
| 197 °C | CC(=O)NC(CCC(N)=O)C(=O)O (centres undefined) [aceglutamide] |
| 100 °C | CC1=NCCN1 [2-methyl-2-imidazoline] |
| 240 °C | O=Cc1ccc(B(O)O)cc1F [3-fluoro-4-formylbenzeneboronic acid] |
